Counter-ions that a name gives are not always drawn. Like-named read-outs stand apart in the source and are kept apart here.
How the values were obtained:
platelet rich plasma = assay: Human platelet rich plasma assay (ADP induced platelet aggregation); type: cell-based; conditions: ADP induced platelet aggregation in human platelet rich plasma, read-out: Human PRP
Experimental: Human Platelet Rich Plasma Assays
Healthy aspirin free donors were selected from a pool of volunteers. The harvesting of platelet rich plasma and subsequent ADP induced platelet aggregation assays were performed as described in Zucker, M. B., “Platelet Aggregation Measured by the Photometric Method”, Methods in Enzymology 169(1989):117-133. Standard venipuncture techniques using a butterfly allowed the withdrawal of 45 mL of whole blood into a 60 mL syringe containing 5 mL of 3.8% trisodium citrate. Following thorough mixing in the syringe, the anti-coagulated whole blood was transferred to a 50 mL conical polyethylene tube. The blood was centrifuged at room temperature for 12 minutes at 200×g to sediment non-platelet cells. Platelet rich plasma was removed to a polyethylene tube and stored at room temperature until used. Platelet poor plasma was obtained from a second centrifugation of the remaining blood at 2000×g for 15 minutes. Platelet counts are typically 300,000 to 500,000 per microliter. Platelet rich plasma (0.45 mL) was aliquoted into siliconized cuvettes and stirred (1100 rpm) at 37° C. for 1 minute prior to adding 50 uL of pre-diluted test compound. After 1 minute of mixing, aggregation was initiated by the addition of 50 uL of 200 uM ADP. Aggregation was recorded for 3 minutes in a Payton dual channel aggregometer (Payton Scientific, Buffalo, N.Y.). The percent inhibition of maximal response (saline control) for a series of test compound dilutions was used to determine a dose response curve.

[1] = target: T1, Human vitronectin receptor (αvβ3) (Homo sapiens, UniProt P05106+P06756); assay: Vitronectin adhesion assay (solid phase receptor assay, competition with biotinylated vitronectin); type: binding; conditions: read-out: AvB3 IC50
T1 construct: Human vitronectin receptor (αvβ3) was purified from human placenta; from tissue; host or cells: human placenta
Method in brief: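 Purified human αvβ3 coated overnight at 4 °C in TBS with 1.0 mM Ca++, Mg++, Mn++, pH 7.4; compounds (top final 1.0×10^−4 M) competed with 1 nM biotinylated vitronectin for 2 h at room temperature. Bound ligand detected by HRP anti-biotin/OPD at A450; values normalized to no-competitor controls, four-parameter curve fit.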

[2] = target: T2, Human fibrinogen receptor (αIIbβ3) (Homo sapiens, UniProt P05106+P08514); assay: Purified IIb/IIIa receptor assay (solid phase receptor assay, competition with biotinylated vitronectin); type: binding; conditions: read-out: IIb/IIIa IC50
T2 construct: Human fibrinogen receptor (αIIbβ3) was purified from outdated platelets; from tissue; host or cells: outdated human platelets
Method in brief: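 Purified platelet αIIbβ3 coated overnight at 4 °C in TBS with 1.0 mM Ca/Mg/Mn, pH 7.4, then BSA-blocked. Compounds (top 1.0×10^−4 M) competed with 1 nM biotinylated vitronectin for 2 h at room temperature. Bound label detected by HRP anti-biotin, A450; values normalized to no-competitor controls, four-parameter fit.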

Compound | IC50 (platelet rich plasma; Homo sapiens, Platelet) | IC50 [1] | IC50 [2] | IC50 (platelet rich plasma)
N=C(N)Nc1cccc(C(=O)NCC(=O)NC(CC(=O)O)c2ccccc2O)c1 (racemic) [Example 87, (±)sodium β-[[2-[[[3-[(aminoiminomethyl)amino]phenyl]carbonyl]amino]acetyl]amino]-2-hydroxybenzenepropanoate, sodium salt, trifluoroacetate salt] | > 200000 nM | 6.35 nM | 732 nM | 
N=C(N)Nc1ccc(Cl)c(C(=O)NCC(=O)NC(CC(=O)O)c2ccccc2)c1 (stereo not drawn) [Example 155, β-[[2-[[[5-[(aminoiminomethyl)amino]-2-chlorophenyl]carbonyl]amino]acetyl]amino]benzenepropanoic acid, trifluoroacete salt] | > 200000 nM | 5.05 nM | 81.1 nM | 
N=C(N)Nc1cccc(C(=O)NCC(=O)NC(CC(=O)O)c2cccc3ccccc23)c1 (racemic) [Example 41, (±)β-[[2-[[[3-[(aminoiminomethyl)amino]phenyl]carbonyl]amino]acetyl]amino]naphthalene-1-propanoic acid, trifluoroacetate salt] | > 200000 nM | 12.1 nM | 830 nM | 
N=C(N)Nc1cccc(C(=O)NCC(=O)NC(CC(=O)O)c2cc(Br)ccc2O)c1 (racemic) [Example 228, (±)β-[[2-[[[3-[(aminoiminomethyl)amino]phenyl]carbonyl]amino]acetyl]amino]-5-bromo-2-hydroxybenzenepropanoic acid, trifluoroacetate salt, monohydrate] | > 200000 nM | 3.36 nM | 583 nM | 
CCN/C(=N\C#N)Nc1cccc(C(=O)NCC(=O)NC(CC(=O)O)c2ccccc2)c1 (stereo not drawn) [Example 139, β-[[2-[[[3-[[(cyanoimino)(ethylamino)methyl]amino]phenyl]carbonyl]amino]acetyl]amino]benzenepropanoic acid] | > 200000 nM | 23.8 nM | 16100 nM | 
NS(=O)(=O)c1ccc(CNC(=O)Nc2cccc(C(=O)NCC(=O)NC(CC(=O)O)c3cccnc3)c2)cc1 (stereo not drawn) [Example 126, β-[[2-[[[3-[[[[(4-(aminosulfonyl)phenylmethyl]amino]carbonyl]amino]phenyl]carbonyl]amino]acetyl]amino]pyridine-3-propanoic acid, trifluoroacetate salt] | > 200000 nM | 2.48 nM | 2010 nM | 
NC(=O)/N=C(/N)Nc1cccc(C(=O)NCC(=O)NC(CC(=O)O)c2cc(Cl)cc(Cl)c2)c1 (stereo not drawn) [Example 162, β-[[(2-[[[3-[[amino(aminocarbonyl)imino]methyl]amino]phenyl]carbonyl]amino]acetyl]amino]-3,5-dichlorobenzenepropanoic acid, trifluoroacetate salt] | > 200000 nM | 4.62 nM | 1340 nM | 
CN/C(=N\C#N)Nc1cccc(C(=O)NCC(=O)NC(CC(=O)O)c2ccccc2)c1 (stereo not drawn) [Example 137, β-[[2-[[[3-[[(cyanoimino)(methylamino)methyl]amino]phenyl]carbonyl]amino]acetyl]amino]benzenepropanoic acid] | > 200000 nM | 16.2 nM | 6500 nM | 
Cc1cc(C)cc(C(CC(=O)O)NC(=O)CNC(=O)c2cccc(NC(=N)N)c2)c1 (racemic) [Example 193, (±)β-[[2-[[[3-[(aminoiminomethyl)amino]phenyl]carbonyl]amino]acetyl]amino]-3,5-dimethylbenzenepropanoic acid, trifluoroacetate salt] | > 20000 nM | 2.56 nM | 209 nM | 
N=C(Nc1cccc(C(=O)NCC(=O)NC(CC(=O)O)c2cccnc2)c1)c1ccccc1 (racemic) [Example 26, (±)β-[[2-[[[3-[(iminophenylmethyl]amino]phenyl]carbonyl]amino]acetyl]amino]pyridine-3-propanoic acid, bis(trifluoroacetate)salt] | > 200000 nM | 14.2 nM | 809 nM | 
COC(=O)c1ccccc1SCCC(CC(=O)O)NC(=O)CNC(=O)c1cccc(NC(=N)N)c1 (racemic) [Example 62, (±)methyl 2-[[3-[2-[[[3-[(aminoiminomethyl)amino]phenyl]carbonyl]amino]acetyl]amino]-4-carboxybutyl]thio]benzoate, trifluoroacetate salt] | > 200000 nM | 1.42 nM | 28.4 nM | 
N=C(N)Nc1cccc(C(=O)NCC(=O)N[C@H](CSc2ccccc2)CC(=O)O)c1 [Example 68, 3S-[[2-[[[3-[(aminoiminomethyl)amino]phenyl]carbonyl]amino]acetyl]amino]-4-(phenylthio)butanoic acid, trifluoroacetate salt] | > 200000 nM | 5.48 nM | 125 nM | 
COC(=O)CC(CC(=O)O)NC(=O)CNC(=O)c1cccc(NC(=N)N)c1 (racemic) [Example 54, (±)hydrogen methyl 3-[[2-[[[3-[(aminoiminomethyl)amino]phenyl]carbonyl]amino]acetyl]amino]pentanedioate, trifluoroacetate salt] | > 200000 nM | 10.7 nM | 175 nM | 
C#C[C@H](CC(=O)O)NC(=O)CNC(=O)c1cccc(NC(=N)N2CCCC2)c1 [Example 34, βS-[[2-[[[3-[[imino(1-pyrrolidinyl)methyl]amino]phenyl]carbonyl]amino]acetyl]amino]-4-pentynoic acid, trifluoroacetate salt] | > 200000 nM | 94.3 nM | 269 nM | 
N#C/N=C(/NCc1ccccn1)Nc1cccc(C(=O)NCC(=O)NC(CC(=O)O)c2ccccc2)c1 (stereo not drawn) [Example 144, β-[[2-[[[3-[[(cyanoimino)[2-pyridinylmethyl)amino]methyl]amino]phenyl]carbonyl]amino]acetyl]amino]benzenepropanoic acid, bis(trifluoroacetate)salt] | > 200000 nM | 55.3 nM | 5830 nM | 
O=C(O)CC(NC(=O)CNC(=O)c1cccc(NC(=O)NCCc2ccccc2)c1)c1cccnc1 (stereo not drawn) [Example 130, β-[[2-[[[3-[[[(2-phenylethyl)amino]carbonyl]amino]phenyl]carbonyl]amino]acetyl]amino]pyridine-3-propanoic acid, trifluoroacetate salt] | > 200000 nM | 47 nM | 2690 nM | 
3S-[[2-[[[3-[(aminoiminomethyl)amino]phenyl]carbonyl]amino]acetyl]amino]-4-hydroxybutanoic acid [Example 86] |  | 8.79 nM | 246 nM | > 200000 nM
N#C/N=C(\N)Nc1cccc(C(=O)NCC(=O)NC(CC(=O)O)c2ccccc2)c1 (stereo not drawn) [Example 138, β-[[2-[[[3-[[amino(cyanoimino)methyl]amino]phenyl]carbonyl]amino]acetyl]amino]benzenepropanoic acid] | > 200000 nM | 36.9 nM | 5820 nM | 
CCOC(=O)CC(NC(=O)CNC(=O)c1cccc(NC(=N)N)c1)c1cccnc1 (racemic) [Example 1, (±)ethyl β-[[2-[[[3-[(aminoiminomethyl)amino]phenyl]carbonyl]amino]acetyl]amino]pyridine-3-propanoate, bis(trifluoroacetate)salt] | > 200000 nM | 76.9 nM | 8350 nM | 

Source: patent publication US6831199B1, “Pyrimidine compounds and derivatives thereof” (G. D. Searle & Co., priority 1995, dated 2004)
